Assay results from patent US20220314021A1, “METHOD FOR D[…] […] PHOTODYNAMIC THERAPY AND PHOTODYNAMIC THERAPY APPARATUS” (OTSUKA ELECTRONICS CO., LTD., priority 2019, published 2022).

System: Jurkat cells derived from human T-cell leukemia
Assay: cell killing assay by PDT in Jurkat cells (630 nm, Cell Counting Kit-8)
Type: cell-based
Conditions: 5-ALA loading 0-1 mmol/L, light irradiation 30 J/cm^2, 630 nm
Protocol: For Jurkat cells derived from human T-cell leukemia which is a disease classification different from that of the human adult T-cell leukemia/lymphoma clinically, amounts of protoporphyrin IX accumulated in the cells by 5-ALA loading (0, 0.0625, 0.125, 0.25, 0.5 and 1 mmol/L) were measured using the fluorescence detection high-performance liquid chromatography method, and then light irradiation (30 J/cm^2) with a central wavelength of 630 nm was further performed as the cell killing assay by PDT, and then cell viabilities (%) using the cell counting kit (Cell Counting Kit-8) were calculated.

SMILES: NCC(=O)CCC(=O)O [5-ALA, 5-aminolevulinic acid]
- cell viabilities versus the regression curve of FIG. 3: located on the regression curve described in FIG. 3
